Values after ≈ are worked out from the molar mass of the structure shown. “Also recorded” adds a separate entry of the source. Like-named read-outs stand apart in the source and are kept apart here.

Series [1] addresses T1, human group IIA (hG-IIA) sPLA2 (Homo sapiens, UniProt P14555).
T1 sequence (P14555 21-144): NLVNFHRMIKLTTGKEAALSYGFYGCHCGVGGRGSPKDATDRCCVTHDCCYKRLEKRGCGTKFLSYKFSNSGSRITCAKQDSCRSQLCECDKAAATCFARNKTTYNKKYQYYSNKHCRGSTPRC
The series can be described thus: In vitro antiphospholipase activity. In kind it is biochemical.

For series [2], the target named is T2, human group V (hG-V) sPLA2 (Homo sapiens, UniProt P39877).
T2 sequence (P39877 21-138): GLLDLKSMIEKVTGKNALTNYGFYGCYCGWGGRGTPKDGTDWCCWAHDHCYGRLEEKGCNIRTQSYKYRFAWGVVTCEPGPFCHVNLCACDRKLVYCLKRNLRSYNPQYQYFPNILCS
Put plainly: In vitro antiphospholipase activity. The format is biochemical.

Series [3] concerns the target T3, human group X (hG-X) sPLA2 (Homo sapiens, UniProt O15496).
T3 sequence (O15496 43-165): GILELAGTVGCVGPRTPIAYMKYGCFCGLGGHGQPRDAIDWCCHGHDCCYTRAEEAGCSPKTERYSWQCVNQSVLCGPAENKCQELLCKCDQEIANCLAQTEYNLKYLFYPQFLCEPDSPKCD
Put plainly: In vitro antiphospholipase activity. The format is biochemical.

For series [4], the target named is Naja mossambica mossambica sPLA2 (NmPLA2). The series can be described thus: In vitro antiphospholipase activity. As to conditions: 20 min preincubation, lecithin substrate, pH 7.6. The format is biochemical.
In series [5] the target is Apis mellifera bee venom (AmPLA2) (Apis mellifera, UniProt P00630). The series can be described thus: biochemical.
Apis mellifera bee venom (AmPLA2), sequence (P00630 34-167 limits assumed): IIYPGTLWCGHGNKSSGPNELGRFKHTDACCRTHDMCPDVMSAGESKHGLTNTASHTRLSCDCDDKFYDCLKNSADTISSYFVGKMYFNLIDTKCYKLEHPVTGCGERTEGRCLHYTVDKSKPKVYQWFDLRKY
For a further series, the target named is cathepsin-B (Homo sapiens, UniProt P07858). The series can be described thus: In vitro antiprotease activity. In kind it is biochemical. As to the method:
(§1) The inhibitory effects of 21 3H-quinazolin-4-one derivatives on several available therapeutically important proteases such as cathepsin-B, collagenase, elastase, thrombin, and trypsin were investigated. […] The protease inhibitory activity was expressed as inhibition percentage, which was determined by comparison with a control experiment. The results were expressed as IC50 values that were determined from the standard curve. A protease inhibitor cocktail (Sigma) was used as the positive control.

In another series the target is collagenase. Put plainly: In vitro antiprotease activity. The format is biochemical. As to conditions: 15 min preincubation. On the procedure: as §1
The next series addresses elastase. The series can be described thus: In vitro antiprotease activity. The format is biochemical. As to conditions: 15 min preincubation. On the procedure:
as §1

The target in another series is thrombin (Homo sapiens, UniProt P00734). The series can be described thus: In vitro antiprotease activity. In kind it is biochemical. On the procedure:
as §1

A further series concerns the target T4, trypsin (Bos taurus, UniProt P00760).
T4 construct: gene PRSS1
T4 sequence (P00760 24-246): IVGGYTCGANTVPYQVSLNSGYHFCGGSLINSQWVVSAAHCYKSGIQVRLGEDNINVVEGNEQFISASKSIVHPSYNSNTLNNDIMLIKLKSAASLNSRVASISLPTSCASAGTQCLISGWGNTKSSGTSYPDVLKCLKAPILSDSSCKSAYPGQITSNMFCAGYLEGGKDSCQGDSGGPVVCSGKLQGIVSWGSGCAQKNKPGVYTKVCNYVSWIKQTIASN
Put plainly: In vitro antiprotease activity. The format is biochemical. As to the method: as §1

In the next series the target is T5, α-glucosidase (Saccharomyces cerevisiae, UniProt P53341).
T5 construct: purchased Sigma
T5 sequence (P53341 whole entry): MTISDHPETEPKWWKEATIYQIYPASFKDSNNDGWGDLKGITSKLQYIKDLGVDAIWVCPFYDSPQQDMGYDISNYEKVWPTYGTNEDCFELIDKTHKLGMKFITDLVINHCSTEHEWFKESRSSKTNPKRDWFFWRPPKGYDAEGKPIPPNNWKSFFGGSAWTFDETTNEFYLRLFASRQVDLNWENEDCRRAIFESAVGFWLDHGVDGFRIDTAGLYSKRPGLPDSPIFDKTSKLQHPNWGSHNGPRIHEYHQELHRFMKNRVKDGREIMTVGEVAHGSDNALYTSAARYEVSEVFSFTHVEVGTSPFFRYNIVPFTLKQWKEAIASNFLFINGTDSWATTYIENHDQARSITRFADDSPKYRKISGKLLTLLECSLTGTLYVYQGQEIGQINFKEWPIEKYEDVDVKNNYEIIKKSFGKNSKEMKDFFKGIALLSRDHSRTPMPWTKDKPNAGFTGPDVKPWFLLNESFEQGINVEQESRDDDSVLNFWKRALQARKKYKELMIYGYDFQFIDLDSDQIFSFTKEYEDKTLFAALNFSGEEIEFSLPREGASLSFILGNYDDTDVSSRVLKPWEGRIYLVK
Put plainly: In vitro inhibition of α-glucosidase activity. The format is biochemical.

The target of another series is xanthine oxidase (Homo sapiens, UniProt P47989). The series can be described thus: In vitro inhibition of xanthine oxidase. In kind it is biochemical.
xanthine oxidase, sequence (P47989 whole entry, species assumed): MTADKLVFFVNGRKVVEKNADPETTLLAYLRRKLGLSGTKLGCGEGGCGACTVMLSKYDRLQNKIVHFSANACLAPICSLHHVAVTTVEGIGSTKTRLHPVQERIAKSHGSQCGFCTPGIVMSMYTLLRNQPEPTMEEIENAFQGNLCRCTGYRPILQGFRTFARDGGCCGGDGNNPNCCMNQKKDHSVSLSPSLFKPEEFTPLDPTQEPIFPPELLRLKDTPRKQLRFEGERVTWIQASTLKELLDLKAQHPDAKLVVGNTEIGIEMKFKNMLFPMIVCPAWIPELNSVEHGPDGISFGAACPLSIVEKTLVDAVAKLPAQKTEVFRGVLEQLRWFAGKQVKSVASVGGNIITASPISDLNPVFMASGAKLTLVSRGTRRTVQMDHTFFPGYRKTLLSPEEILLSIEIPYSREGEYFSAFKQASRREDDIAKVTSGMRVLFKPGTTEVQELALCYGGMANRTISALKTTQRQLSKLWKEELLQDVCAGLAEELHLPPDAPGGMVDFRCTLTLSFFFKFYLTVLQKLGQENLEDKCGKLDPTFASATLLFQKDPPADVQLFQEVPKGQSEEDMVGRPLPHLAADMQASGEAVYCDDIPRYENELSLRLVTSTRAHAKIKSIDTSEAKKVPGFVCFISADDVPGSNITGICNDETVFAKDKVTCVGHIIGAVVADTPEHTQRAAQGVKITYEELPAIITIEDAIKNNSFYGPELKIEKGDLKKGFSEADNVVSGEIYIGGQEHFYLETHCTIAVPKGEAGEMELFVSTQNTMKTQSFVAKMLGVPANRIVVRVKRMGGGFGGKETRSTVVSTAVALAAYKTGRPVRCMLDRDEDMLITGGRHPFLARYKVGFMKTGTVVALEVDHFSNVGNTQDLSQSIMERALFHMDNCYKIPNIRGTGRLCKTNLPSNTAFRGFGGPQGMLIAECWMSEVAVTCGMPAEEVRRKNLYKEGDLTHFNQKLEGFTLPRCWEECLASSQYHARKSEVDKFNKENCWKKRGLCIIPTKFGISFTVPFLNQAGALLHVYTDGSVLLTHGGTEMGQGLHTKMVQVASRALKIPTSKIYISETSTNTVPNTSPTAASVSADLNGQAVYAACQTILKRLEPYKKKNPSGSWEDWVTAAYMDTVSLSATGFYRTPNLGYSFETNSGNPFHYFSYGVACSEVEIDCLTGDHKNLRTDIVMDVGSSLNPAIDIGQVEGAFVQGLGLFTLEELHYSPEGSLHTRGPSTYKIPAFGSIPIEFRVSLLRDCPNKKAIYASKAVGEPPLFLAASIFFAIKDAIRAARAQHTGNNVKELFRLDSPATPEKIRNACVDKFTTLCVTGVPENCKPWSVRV
The subject of series [6] is HT-29 cells. Put plainly: MTT cell viability assay. In kind it is cell-based, Human. As to conditions: for inhibition of cell viability (in words): HT-29, 30 μg/ml, MTT. As to the method: (§2) Human CRC cell lines, HT-29 and SW620 cells were grown in RPMI (Invitrogen) containing 10% heat-inactivated foetal bovine serum, 100 µg/ml streptomycin, 100 units/ml penicillin and 2 mmol/l L-glutamine.
(§3) Cell viability was determined using the 3-(4, 5-dimethylthiazolyl-2)–2, 5-diphenyltetrazolium bromide) MTT assay according to Mosmann[40]. 5-Fluorouracil (5-FU) was used as positive control. Briefly, after culturing cells in 96 well plates for 24 h, they were treated with different compounds (30 μg/ml) for 24 h. Freshly prepared MTT (5 mM) solutions were added to the cells and were further incubated for 2 h at 37 °C in 5% CO2. One hundred microliters of dimethyl sulphoxide (DMSO) was added in each well to dissolve the formazan crystal, formed in the reaction during incubation by careful pipetting. The absorbance of the product was measured at 540 nm using a microplate reader. The experiments were performed in triplicate for each condition. The graph illustrates the mean and standard deviation (SD) values of three independent experiments.

The subject of series [7] is SW620 cells. The series can be described thus: MTT cell viability assay. The format is cell-based, Human. As to conditions: for inhibition of cell viability (in words): SW620, 30 μg/ml, MTT. On the procedure: as §2, §3
For orientation: Tetrazolium assays rely on reduction of a dye to a coloured formazan, in cell work by metabolically active cells.

Series [8] deals with HT-29 cells. Put plainly: Cytotoxicity assay using the xCELLigence system. The format is cell-based, Human. As to conditions: HT-29, 20 and 40 µg/ml, 3 d, xCELLigence RTCA. As to the method:
(§4) The optimal seeding concentration for proliferation of HT-29 was determined. HT-29 cells (5000 cell in 150 µl medium/well) and SW620 cells (12,000 cell in 150 µl medium/well) were seeded in 16 well plates (E-plate 16-ACEA Biosciences Inc., San Diego, CA) as described in the xCELLigence Real Time Cell Analyzer (RTCA) DP instrument manual provided by the manufacturer. After 24 h, 20 and 40 µg/ml of compound 15d were added and the experiments were allowed to run for another 3 d. Baseline cell indexes were calculated for at least two measurements from three replicate experiments.

The subject of series [9] is SW620 cells. The series can be described thus: Cytotoxicity assay using the xCELLigence system. In kind it is cell-based, Human. As to conditions: SW620, 20 and 40 µg/ml, 3 d, xCELLigence RTCA. As to the method: as §4
The subject of another series is Bcl2. Put plainly: Western blotting of anti-apoptotic protein expression. The format is cell-based, Human. As to conditions: SW620 cells, various concentrations, 24 h, immunoblot. As to the method: (§5) Whole cell lysates were prepared using radioimmunoprecipitation assay (RIPA) lysis buffer as described by Al-Khayal and co-workers[41]. Total protein concentration was determined using Bradford protein reagent (Bio-Rad, Hercules, CA). Soluble proteins were loaded on precast TGX gels and were analysed using immunoblotting with anti-Bcl2, anti-BclxL (dilution 1:1000; Santa Cruz Biotechnology, Dallas, TX), and anti-β-actin (1:10,000 Sigma, St. Louis, MO). Reactivity was detected using horseradish peroxidase-conjugated secondary antibodies and chemiluminescence by Clarity Western ECL substrate (Bio-Rad). Membrane was developed using C-Digit Blot Scanner (LI-COR, Hamburg, Germany).
(§6) SW620 cells were treated with various concentrations of 15d for 24 h.

For another series, the system named is BclxL. The series is described as above. As to conditions: SW620 cells, various concentrations, 24 h, immunoblot. In kind it is cell-based, Human. As to the method:
as §5, §6
(In general: A western blot detects proteins with antibodies after separation by electrophoresis.)

Series [10] has as its system HT-29 cells. Put plainly: MTT cell viability assay. In kind it is cell-based. As to conditions: Homo sapiens, HT-29, read-out: IC50 (cell viability).
In series [11] the test system is SW620 cells. Put plainly: MTT cell viability assay. The format is cell-based. As to conditions: Homo sapiens, SW-620, read-out: IC50 (cell viability).
[12] abbreviates: 20 min preincubation, lecithin substrate, pH 7.6, read-out: mean IC50 against hG-V (converted).
[13] abbreviates: 20 min preincubation, lecithin substrate, pH 7.6, read-out: mean IC50 against hG-X (converted).
Where [14] appears, read: 15 min preincubation, read-out: mean IC50 against Cathepsin-B (converted).
The mark [15] stands for this setting: 15 min preincubation, read-out: mean IC50 against Thrombin (converted).
[16] abbreviates: 15 min preincubation, read-out: mean IC50 against Trypsin (converted).

Experimental for xanthine oxidase: The xanthine oxidase inhibitory activities of the examined chemical compounds were determined by following the formation of uric acid from xanthine according to the reported method by Bondet and co-workers[46]. […] The results were expressed as IC50 determined from the curve.
Experimental for α-glucosidase: The colorimetric assay included 2 U of α-glucosidase, 5 mM of 4-NPGP, and 10 mM potassium phosphate buffer, pH 6.9. […] The reading assay was performed using a microplate reader at 405 nm. […] The results were expressed as IC50 determined from the curve.

`COc1cc(-n2c(C)nc3ccccc3c2=O)cc(OC)c1OC` [Compound 5a, 2 -Methyl-3-(3,4,5-trimethoxy-phenyl)-3H-quinazolin-4-one] showed a melting point of 88 to 90 °C. It took 21.4 µM to reach half-maximal inhibition in [1] (IC50). In [2], this molecule gave an IC50 of 29.4 µM. This molecule also gave an IC50 in series [3] of 23.4 µM. For the same molecule, in series [4], the “mean IC50 against NmPLA2” value is 6.00 ± 0.71 µg/mL. In addition, the IC50 in [5] was 16.9 µM. 25.3 µM corresponded to half-maximal inhibition on cathepsin-B (IC50). In addition, the “mean IC50 against Collagenase” value at collagenase was determined as 12.25 ± 1.77 µg/mL. Further, the “mean IC50 against Elastase” value on elastase is 23.5 ± 0.71 µg/mL. Besides, the IC50 against thrombin was 67.4 µM. For the same molecule, the IC50 against trypsin is 88.9 µM. Besides, at α-glucosidase, the IC50 was 64.3 µM. The molecule also had an IC50 on xanthine oxidase of 22.2 µM.

As to `Cc1ccc2nc(SCC(=O)Nc3c(C)cccc3C)n(-c3ccccc3)c(=O)c2c1` [Compound 15d, N-(2,6-Dimethyl-phenyl)-2-(6-methyl-4-oxo-3-phenyl-3,4-dihydro-quinazolin-2-ylsulfanyl) -acetamide], the melting point fell in the range of 229 to 230 °C. Also, the “inhibition of cell viability (in words)” value in the series with HT-29 cells [6] was “potently capable of inhibiting cell viability”. In the series with HT-29 cells [6] (Homo sapiens, HT-29, 24 h, read-out: cell viability), the viability at 30 µg/mL was 38%. Further, the viability at 30 µg/mL with SW620 cells [7] (Homo sapiens, SW-620, 24 h, read-out: cell viability) was 36.7%. Further, the “inhibition of cell viability (in words)” value in the series with SW620 cells [7] is given as “potently capable of inhibiting cell viability”. Moreover, the “cell proliferation, real time (in words)” value in the series on HT-29 cells [8] is “inhibit the cell proliferation”. Further, the “cell proliferation, real time (in words)” value with SW620 cells [9] was “inhibit the cell proliferation”. In the series on Bcl2, the “expression of Bcl2” value is on record as “down regulating; also recorded: inhibited”. Moreover, the “expression of BclxL” value with BclxL is given as “down regulating; also recorded: inhibited”. The same molecule gave an IC50 in series [1] of 16.6 µM. The IC50 in series [2] (setting [12]) was 24.4 µM. Besides, in [3] (setting [13]), the IC50 was 54.7 µM. In addition, in [4], the “mean IC50 against NmPLA2” value was 8.50 ± 2.12 µg/mL. In [5], this molecule had an IC50 of 14 µM. In addition, the IC50 on cathepsin-B (setting [14]) is 9.31 µM. Also, the “mean IC50 against Collagenase” value at collagenase turned out to be 10.50 ± 0.71 µg/mL. In addition, the “mean IC50 against Elastase” value on elastase came out at 15.50 ± 2.12 µg/mL. In addition, the IC50 on thrombin (setting [15]) was 39.6 µM. The IC50 at trypsin (setting [16]) was 32.6 µM. At xanthine oxidase, this molecule gave an IC50 of 165 µM. The IC50 with HT-29 cells [10] is roughly 20 µg/mL (≈ 46.6 µM). Moreover, the IC50 with SW620 cells [11] is roughly 20 µg/mL (≈ 46.6 µM).

In the case of `Cc1nc2ccc(Br)cc2c(=O)n1/N=C/c1ccc(-c2ccccc2)cc1` [Compound 8j, (E)-3-[(Biphenyl-4-ylmethylene)-amino]-6-bromo-2-methyl-3H-quinazolin-4-one], the melting point fell in the range of 208 to 210 °C. The “inhibition of cell viability (in words)” value with HT-29 cells [6] is “potently capable of inhibiting cell viability”. For the same molecule, in the series on SW620 cells [7], the “inhibition of cell viability (in words)” value is listed as “potently capable of inhibiting cell viability”. Further, in [1], it took 20.2 µM to reach half-maximal inhibition (IC50). In addition, in series [2] (setting [12]), the IC50 was 14.9 µM. Besides, in series [3] (setting [13]), the IC50 was 22.6 µM. The “mean IC50 against NmPLA2” value in [4] was determined as 16.40 ± 0.85 µg/mL. The molecule further gave an IC50 in series [5] of 45.4 µM. Also, the IC50 at cathepsin-B (setting [14]) is 3.35 µM. For the same molecule, at collagenase, the “mean IC50 against Collagenase” value amounted to 14.00 ± 1.41 µg/mL. Moreover, the “mean IC50 against Elastase” value at elastase came out at 9.00 ± 0.41 µg/mL. The IC50 at thrombin (setting [15]) is 29.9 µM. Besides, the half-inhibitory concentration (IC50) on trypsin (setting [16]) was 22.7 µM. On xanthine oxidase, this molecule showed an IC50 of 49 µM.

Usually IC50 stands for the concentration at which inhibition is half-maximal. Usually melting point stands for the temperature, or range, at which the solid turns liquid. One may read the viability as the share of living cells, or the viability signal relative to a control.
